{"source": "patent US12011433B2", "about": "(UNIVERSITÁ DEGLI STUDI DI BARI “ALDO MORO”, priority 2016, dated 2024)", "key": {"PGE2": {"system": "PGE2", "experiment": "PGE2 release in brain specimens from LPS-treated mice", "type": "in vivo", "settings": "for PGE2 release reduction (%): LPS-treated mice, mofezolac 6 mg/kg i.p.; for PGE2 release (ng/mg tissue): LPS or M+LPS treated mice", "protocol": "(§1) On the seventh day, mice were anesthetized with tribromoethanol (250 mg/Kg, i.p.) and positioned in a stereotactic apparatus (Kopf Instruments, Tujunga, CA, USA). […] Sterotaxic injections coordinates were: 2.3 mm dorsal/ventral, 1.0 mm lateral, and 0.5 mm anterior/posterior from the bregma.\nMicroglial cells were cultured in 6-well plates at a density of 3×10^6 cells/well. […] The cultures were maintained at 37° C. for 24 and 48 h in a humidified air containing a 5% CO2. PGE2 levels were determined in the supernatant using a competitive binding immunoassay (Cayman Chemical, Ann Arbor, MI, USA) following the manufacturer's instructions. Unstimulated cells were included as a control. PGE2 amount determination in the brain was performed in the tissue extracts, according to the manufacturer's instructions. The optical density was measured at λ=405-420 nm with precision microplate reader and the amount of PGE2 (ng/mL) was calculated using a PGE2 standard curve."}, "COX-2": {"target": "COX-2 (Mus musculus (Mouse), UniProt Q05769)", "experiment": "COX-2 expression in brain regions of LPS-treated mice, immunoblotting", "type": "in vivo", "settings": "for COX-2 expression reduction (%): mofezolac 6 mg/kg i.p.", "protocol": "Substantia nigra pars compacta (SNpc), Hippocampus, Frontal lobe and Caudate from mice brains were minced in ice-cold PBS, washed and then homogenized in a buffer containing lysis buffer (50 mM Tris pH 8, 0.02 g/mL NaCl, 0.2% SDS, 1% Triton-X, 4 U/ml aprotinin, 2 mM leupeptin, 100 mM phenylmethanesulfonyl fluoride).\nThe tissue and cell culture lysates were vortexed for 15-20 s and, then, centrifuged at 12,800×g for 20 min. The protein concentration in the supernatant was spectrophotometrically determined by Bradford's protein assay (Bradford, 1976). Protein samples were diluted with sample buffer (0.5 M Tris-HCl pH=6.8, 10% glycerol, 10% (w/v) SDS, 5% 2-mercaptoethanol, 0.05% (w/v) bromophenol blue) and then boiled for 3 min. Proteins (25 μg/lane) and prestained standards (BioRad Laboratories, Hercules, CA, USA) were loaded on 7% or 12% SDS precast polyacrylamide gels (BioRad Laboratories).\nAfter electrophoresis, the resolved proteins were transferred from the gel to nitrocellulose membranes. A blotting buffer [20 mMTris/150 mM glycine, pH=8.0, 20% (v/v) methanol] was used for gel and membrane saturation and blotting. Then, membranes were incubated in the dark with 1 μg/mL mouse monoclonal antibody (MoAb) anti-COX-1 and rabbit polyclonal Ab anti-COX-2 (1:1000) (both from AbCam, Cambridge, UK), rabbit polyclonal Ab anti p-IkB-α (1:200), mouse polyclonal Ab anti β-actin (1:500) (all from Santa Cruz Biotechnology), mouse MoAb anti-glial fibrillary acidic protein (GFAP) (1:200) and mouse mAb anti-ionized calcium-binding adapter molecule-1 (Iba-1) (1:200) (both from Merck Millipore) overnight at 4° C. The membranes were washed with 0.1% Tween 20-PBS (for 20 min, 3 times) and then incubated with the secondary antibody diluted 1:2000 for 60 min. Bands were visualized by chemiluminescence detection (Invitrogen, Milan, Italy). The β-actin level was used as a protein loading control. For tissue analysis, obtained bands were normalized to the level of β-actin performed for each cerebral area tested. For cell cultures the bands were normalized to the β-actin level in each experimental condition.\nas §1"}}, "note": "Marks after values point to notes of the source that are not given here."}
{"molecule": "COc1ccc(-c2noc(CC(=O)O)c2-c2ccc(OC)cc2)cc1", "note": "[mofezolac, 2-(3,4-bis(4-methoxyphenyl)isoxazol-5-yl)acetic acid]", "values": [{"measurement": "PGE2 release reduction (%)", "setting": "PGE2; Caudate", "result": 67, "unit": "%"}, {"measurement": "PGE2 release (ng/mg tissue)", "setting": "PGE2; Caudate-Putamen", "result": "1.84 + 0.035 ^d ng/mg tissue"}, {"measurement": "PGE2 release (ng/mg tissue)", "setting": "PGE2; Frontal lobe", "result": "2.40 ± 0.046 ^d ng/mg tissue"}, {"measurement": "PGE2 release reduction (%)", "setting": "PGE2; Frontal lobe", "result": 49, "unit": "%"}, {"measurement": "PGE2 release (ng/mg tissue)", "setting": "PGE2; Hippocampus", "result": "2.33 ± 0.032 ^d ng/mg tissue"}, {"measurement": "PGE2 release reduction (%)", "setting": "PGE2; Hippocampus", "result": 48, "unit": "%"}, {"measurement": "PGE2 release (ng/mg tissue)", "setting": "PGE2; Substantia nigra", "result": "3.31 ± 0.079 ^d ng/mg tissue"}, {"measurement": "PGE2 release reduction (%)", "setting": "PGE2; Substantia nigra", "result": 39, "unit": "%"}, {"measurement": "COX-2 expression reduction (%)", "setting": "COX-2; Caudate", "result": 0, "unit": "%"}, {"measurement": "COX-2 expression reduction (%)", "setting": "COX-2; Frontal lobe", "result": 0, "unit": "%"}, {"measurement": "COX-2 expression reduction (%)", "setting": "COX-2; Hippocampus", "result": 0, "unit": "%"}, {"measurement": "COX-2 expression reduction (%)", "setting": "COX-2; Substantia nigra", "result": 0, "unit": "%"}, {"measurement": "effect on COX-2 modulation", "setting": "COX-2; all tested brain regions", "result": "no effect"}]}
